Measurements taken from patent publication US11116217B2, “Synergistic biocidal compositions containing 5-chloro-2-methylisothiazolin-3-one” (Thor GmbH, priority 2016, dated 2021).
Marks after values point to notes of the source that are not given here.

Tested on: Pseudomonas putida (DSM 25068)
Assay: Minimum inhibitory concentration and synergy index (Kull) of CMIT combinations in Müller-Hinton broth microtiter plates
Type: cell-based
Conditions: 48 hours at 30° C.; for synergy index: SI=Qa/QA+Qb/QB
Excerpt: The synergism of a combination of 5-chloro-2-methylisothiazolin-3-one, containing 0.003 wt. %, in relation to the total proportion of 5-chloro-2-methyl-4-isothiazolin-3-one, of 2-methylisothiazolin-3-one, each time with a biocide/substance selected from the group of 1,2-benzisothiazolin-3-one (BIT), 2-bromo-2-nitropropane-1,3-diol (Bronopol), and zinc, was investigated for a synergistic interaction.
The test organisms used were the Gram-negative bacterium Pseudomonas putida (DSM 25068). For this, mixtures with different concentrations of the respective active substances were prepared and tested in regard to their effect on Pseudomonas putida. The testing was done in Müller-Hinton broth MHB (pH 7.0) with a cell density of 10^6 germs per ml.
The incubation time of the microtiter plates was 48 hours at 30° C. After 48 hours, the batches were evaluated for turbidity due to growth and, in addition, the optical density was determined by photometry. In this way, the minimum inhibitory concentrations (MHK) were determined for the two active substances individually and in combination.
The resulting synergism was represented numerically by calculating the synergy index (SI). The calculation was done by the customary method of F. C. Kull et al., Applied Microbiology, Vol. 9 (1961), p. 538. Loc. cit., the SI is calculated by the following formula: synergy index SI=Qa/QA+Qb/QB Qa=concentration of component A in the mixture A+B QA=concentration of component A as solitary biocide Qb=concentration of component B in the mixture A+B QB=concentration of component B as solitary biocide
If the synergy index has a value over 1, this means that an antagonism is present. If the synergy index takes on the value 1, this means that an addition of the effect of the two biocides/compounds is present. If the synergy index takes on a value below 1, this means that a synergism exists for the two biocides.

[1] = CMIT and zinc (ZnCl2), QB assumed 240 ppm
[2] = single agent, MHB pH 7.0, 10^6 germs per ml
[3] = CMIT and BIT, below 1 = synergism
[4] = CMIT and Bronopol, below 1 = synergism

| Compound | synergy index [1] | concentration as solitary agent indicating an end point (minimum inhibitory concentration, QA/QB) [2] | synergy index [3] | synergy index [4] | MIC (Pseudomonas putida, DSM25068, single agent, MHB pH 7.0, 10^6 germs per ml, read-out: concentration as solitary agent indicating an end point (minimum inhibitory concentration, QA/QB)) [mg/L] |
| --- | --- | --- | --- | --- | --- |
| [Cl-].[Cl-].[Zn+2] [Zn, zinc chloride] | 1.00 | > 240* ppm | – | – | – |
| O=c1[nH]sc2ccccc12 [BIT, 1,2-benzisothiazolin-3-one] | – | 100 ppm | 1.00 | – | – |
| O=[N+]([O-])C(Br)(CO)CO [Bronopol, 2-bromo-2-nitropropane-1,3-diol] | – | – | – | 1.00 | 15 |
| Cn1sc(Cl)cc1=O [CMIT, 5-chloro-2-methylisothiazolin-3-one] | 1.00 | 1.5 ppm | 1.00 | 1.00 | – |
